Source: patent US20250339547A1, “MET BCL-XL INHIBITOR ANTIBODY-DRUG CONJUGATES AND METHODS OF USE THEREOF” (Novartis AG, priority 2022, published 2025)
pIC50: −log10 of the molar value. Each block holds one compound with its values, some of them ahead of it. Non-standard residues stand in square brackets, D forms with d. Residues, ends and D or L forms follow the SMILES beside them. *: point of attachment. Dolaproine = CO[C@@H]([C@@H]1CCCN1)[C@@H](C)C(=O)O; Dil = CC[C@H](C)[C@H](NC)[C@@H](CC(=O)O)OC; X1 = C[C@@H](N*)[C@@H](O)c1ccccc1; NMeV = CN[C@H](C(=O)O)C(C)C

Legend:
NCI-H1975 = assay: Lung cancer cell line viability, single agent or 1:1 combination (CTG 120h), Example 7; assay type: cell-based; conditions: NCI-H1975, CTG 120 h
Experimental: (§1) Cell lines were cultured in the media described above at 37° C. in a humidified atmosphere containing 5% CO2. Cells were seeded in 96 well clear bottom plates (96 well clear-bottom, white, Corning reference 3903) and exposed to the mAbs, mAbs mixture, ADCs or ADCs mixture as single agents or in 1:1 combination with Paclitaxel. When in 1:1 combination, both the combining partner (Paclitaxel) and the mAb, mAb mixture, ADC or ADC mixture were serially diluted (9 concentrations each, triplicates). Effect on cell viability was assessed after 5 days of incubation at 37° C./5% CO2 by quantification of cellular ATP levels using CellTiter-Glo reagent (Promega Ref: G7571) at 75 μL reagent/well. All the conditions were tested in triplicates. Luminescence was quantified on a multipurpose plate reader. IC50s were calculated using standard four-parametric curve fitting. IC50 is defined as the compound concentration at which the CTG signal is reduced to 50% of that measured for the control. Two independent experiments were performed (N1 and N2).

CALU1 = assay: as above; assay type: cell-based; conditions: CALU1, CTG 120 h
Experimental: as §1

HCC366 = assay: as above; assay type: cell-based; conditions: HCC366, CTG 120 h
Experimental: as §1

HCC4006 = assay: as above; assay type: cell-based; conditions: HCC4006, CTG 120 h
Experimental: as §1

HCC827 = assay: as above; assay type: cell-based; conditions: HCC827, CTG 120 h
Experimental: as §1

LU65 = assay: as above; assay type: cell-based; conditions: LU65, CTG 120 h
Experimental: as §1

NCI-H441 = assay: as above; assay type: cell-based; conditions: NCI-H441, CTG 120 h
Experimental: as §1

HCC78 = assay: as above; assay type: cell-based; conditions: HCC78, CTG 120 h
Experimental: as §1

NCI-H1838 = assay: as above; assay type: cell-based; conditions: NCI-H1838, CTG 120 h
Experimental: as §1

[1] = tested on: T-ALL (T-cell Acute Lymphoblastic Leukemia) and different types of solid tumors; conditions: cited from earlier work
lymphoid malignancies = conditions: cited from earlier work
[2] = tested on: hematological malignancies and solid tumors; conditions: several hematological malignancies and solid tumors; cited from earlier work
Hs766T = assay: Pancreatic cancer cell line viability, single agent or 1:1 combination (CTG 120h), Example 10; assay type: cell-based
Experimental: (§2) Cell lines were cultured in the media described above at 37° C. in a humidified atmosphere containing 5% CO2. Cells were seeded in 96 well clear bottom plates (96 well clear-bottom, white, Corning reference 3903) and exposed to the mAbs or ADCs as single agents or in 1:1 combination with Paclitaxel, Trametinib or Gemcitabine. When in 1:1 combination, both the combining partner (Paclitaxel, Trametinib or Gemcitabine) and the mAb or ADC were serially diluted (9 concentrations each, triplicates). Effect on cell viability was assessed after 5 days of incubation at 37° C./5% CO2 by quantification of cellular ATP levels using CellTiter-Glo reagent (Promega Ref: G7571) at 75 μL reagent/well. All the conditions were tested in triplicates. Luminescence was quantified on a multipurpose plate reader. IC50s were calculated using standard four-parametric curve fitting. IC50 is defined as the compound concentration at which the CTG signal is reduced to 50% of that measured for the control. Two independent experiments were performed (N1 and N2).

Panc 10.05 = assay: as above; assay type: cell-based; conditions: Homo sapiens, Panc1005, 120 h, Panc 10.05, CTG 120 h
Experimental: as §2

AsPC-1 = assay: as above; assay type: cell-based; conditions: Homo sapiens, ASPC1, 120 h, AsPC-1, CTG 120 h
Experimental: as §2

KP-4 = assay: as above; assay type: cell-based; conditions: Homo sapiens, KP-4, 120 h, KP-4, CTG 120 h
Experimental: as §2

BxPC-3 = assay: as above; assay type: cell-based; conditions: Homo sapiens, BXPC-3, 120 h, BxPC-3, CTG 120 h
Experimental: as §2

[3] = tested on: pancreatic cancer cell lines; assay: Pancreatic cancer cell line panel of Example 10 (CTG 120h); assay type: cell-based; conditions: pancreatic cancer cell lines of Table 16, single agents
Experimental: Cell lines were cultured in the media described above at 37° C. in a humidified atmosphere containing 5% CO2. […] When in 1:1 combination, both the combining partner (Paclitaxel, Trametinib or Gemcitabine) and the mAb or ADC were serially diluted (9 concentrations each, triplicates). Effect on cell viability was assessed after 5 days of incubation at 37° C./5% CO2 by quantification of cellular ATP levels using CellTiter-Glo reagent (Promega Ref: G7571) at 75 μL reagent/well. All the conditions were tested in triplicates. Luminescence was quantified on a multipurpose plate reader. IC50s were calculated using standard four-parametric curve fitting. […] Two independent experiments were performed (N1 and N2).

arthritis and lupus = conditions: mice, animal models of arthritis and lupus; cited from earlier work
lymphocyte proliferation = conditions: in vitro; cited from earlier work
[4] = tested on: allogeneic T- and B-cell responses; conditions: after skin transplantation; cited from earlier work
allogeneic T-cell = conditions: in vitro; cited from earlier work
H1650 xenografts = assay: In vivo efficacy in combination with osimertinib in Met non amplified NCI-H1650 lung adenocarcinoma human cell model, Example 16; design: species or system SCID mice; conditions: osimertinib 15 mg/kg orally on day 1, 2, 3, 4, 7, 8, 9, alone
Text: Below are the procedures for determining the in vivo therapeutic effect of different Bcl-xL ADCs targeting the Met protein as a single agent or in combination with osimertinib. Their activities are compared to the corresponding naked anti-Met mAbs or Ab G-L42C-P25 (Isotype control/non-targeting ADC) formulated in Phosphate-Buffered Saline (PBS) in a Met non amplified NCI-H1650 lung adenocarcinoma human cell line after intravenous (IV) administration.
NCI-H1650 cells, obtained from ATCC, were cultured in RPMI supplemented with 10% SBS, 1% Penicillin-Streptomycin and 1% HEPES. Cells were resuspended in 50% Matrigel® (Corning®) and 0.1 ml containing 10×10^6 cells were subcutaneously inoculated into the right flank of female SCID mice, provided by JANVIER labs.
When tumors reached the appropriate volume (100-200 mm3), mice were randomized, 6 animals per group, using Easy stat software. […]
Mice body weight was monitored 3 times a week and tumor size measured using electronic calipers. […] The last day with at least half of control animals still present in the study (d25), tumor growth inhibition was calculated using the formula: […]
With DTV (Delta Tumor Volume) at Dx, calculated being TV at Dx−TV at Randomization. […]

SMILES: CC[C@H](C)[C@@H]([C@@H](CC(=O)N1CCC[C@H]1[C@H](OC)[C@@H](C)C(=O)N[C@H](C)[C@@H](O)c1ccccc1)OC)N(C)C(=O)[C@@H](NC(=O)[C@@H](NC)C(C)C)C(C)C [MMAE, monomethyl auristatin E] (H-[NMeV]V[Dil][Dolaproine]-X1)
- pIC50 (NCI-H1975; Mean): 9.60
- pIC50 (NCI-H1975; n1): 9.60
- pIC50 (CALU1; Mean): 9.00
- pIC50 (CALU1; n1): 9.19
- pIC50 (CALU1; n2): 8.86
- pIC50 (HCC366; Mean): 9.19
- pIC50 (HCC366; n1): 9.28
- pIC50 (HCC366; n2): 9.12
- pIC50 (HCC4006; Mean): 9.72
- pIC50 (HCC4006; n1): 9.92
- pIC50 (HCC4006; n2): 9.59
- pIC50 (HCC827; Mean): 8.88
- pIC50 (HCC827; n1): 8.84
- pIC50 (HCC827; n2): 8.94
- pIC50 (LU65; Mean): 9.08
- pIC50 (LU65; n1): 9.15
- pIC50 (LU65; n2): 9.02
- pIC50 (NCI-H441; Mean): 9.42
- pIC50 (NCI-H441; n1): 9.40
- pIC50 (NCI-H441; n2): 9.44
- pIC50 (HCC78; Mean): 9.24
- pIC50 (HCC78; n1): 9.27
- pIC50 (HCC78; n2): 9.22
- pIC50 (NCI-H1838; Mean): 7.22
- pIC50 (NCI-H1838; n1): 7.05
- pIC50 (NCI-H1838; n2): 7.49

SMILES: Cc1c(-c2ccc(N3CCc4cccc(C(=O)Nc5nc6ccccc6s5)c4C3)nc2C(=O)O)cnn1CC12CC3CC(CC(C3)C1)C2 [A-1331852]
- in vivo activity in pre-clinical models [1]: exhibited in vivo activity

SMILES: CC1(C)CCC(c2ccc(Cl)cc2)=C(CN2CCN(c3ccc(C(=O)NS(=O)(=O)c4ccc(N[C@H](CCN5CCOCC5)CSc5ccccc5)c(S(=O)(=O)C(F)(F)F)c4)cc3)CC2)C1 [ABT-263, navitoclax]
- antitumor activity in clinical studies (lymphoid malignancies): objective antitumor activity
- activity in pre-clinical models [2]: has shown activity

- pIC50 (Hs766T; mean): 8.55
- pIC50 (Hs766T; n1): 8.60
- pIC50 (Hs766T; n2): 8.51
- pIC50 (Panc 10.05; mean): 7.24
- pIC50 (Panc 10.05; n1): 7.49
- pIC50 (Panc 10.05; n2): 7.08
- pIC50 (AsPC-1; mean): 8.01
- pIC50 (AsPC-1; n1): 8.05
- pIC50 (AsPC-1; n2): 7.97
- pIC50 (KP-4; mean): 5.78
- pIC50 (KP-4; n1): 6.21
- pIC50 (KP-4; n2): 5.57
- pIC50 (BxPC-3; mean): 7.93
- pIC50 (BxPC-3; n1): 8.09
- pIC50 (BxPC-3; n2): 7.82
SMILES: CC(=O)Nc1cccc(-n2c(=O)n(C3CC3)c(=O)c3c(Nc4ccc(I)cc4F)n(C)c(=O)c(C)c32)c1 [Trametinib, N-(3-{3-cyclopropyl-5-[(2-fluoro-4-iodophenyl)amino]-6,8-dimethyl-2,4,7-trioxo-3,4,6,7-tetrahydropyrido[4,3-d]pyrimidin-1(2H)-yl}phenyl)acetamide]
- effect on the viability [3]: induced dose dependent decrease in cell viability with measurable IC50 for most of the cell lines

SMILES: CN(C)CC[C@H](CSc1ccccc1)Nc1ccc(S(=O)(=O)NC(=O)c2ccc(N3CCN(Cc4ccccc4-c4ccc(Cl)cc4)CC3)cc2)cc1[N+](=O)[O-] [ABT-737]
- disease severity (arthritis and lupus): significant decrease in disease severity
- inhibition of lymphocyte proliferation (lymphocyte proliferation): potent inhibition
- allogeneic T- and B-cell responses [4]: inhibited
- allogeneic T-cell activation, proliferation, and cytotoxicity (allogeneic T-cell): prevented

SMILES: C=CC(=O)Nc1cc(Nc2nccc(-c3cn(C)c4ccccc34)n2)c(OC)cc1N(C)CCN(C)C [Osimertinib, osimertinib]
- TGI % (d 25) (H1650 xenografts): 86.3%

SMILES: CN(C)CC#Cc1ccc(OCCCc2sc(N3CCc4cccc(C(=O)Nc5nc6ccccc6s5)c4C3)nc2C(=O)O)c(F)c1 [A-1155463]
- in vivo activity in pre-clinical models [1]: exhibited in vivo activity

- pIC50 (Hs766T; mean): < 4.52
- pIC50 (Hs766T; n1): < 4.52
- pIC50 (Hs766T; n2): < 4.52
- pIC50 (Panc 10.05; mean): 7.17
- pIC50 (Panc 10.05; n1): 7.23
- pIC50 (Panc 10.05; n2): 7.11
- pIC50 (AsPC-1; mean): 6.62
- pIC50 (AsPC-1; n1): 6.39
- pIC50 (AsPC-1; n2): 7.12
- pIC50 (KP-4; mean): 7.96
- pIC50 (KP-4; n1): 8.01
- pIC50 (KP-4; n2): 7.92
- pIC50 (BxPC-3; mean): 7.89
- pIC50 (BxPC-3; n1): 7.97
- pIC50 (BxPC-3; n2): 7.82
SMILES: Nc1ccn([C@@H]2O[C@H](CO)[C@@H](O)C2(F)F)c(=O)n1 [Gemcitabine, gemcitabine]
- effect on the viability [3]: induced dose dependent decrease in cell viability with measurable IC50 for most of the cell lines
